For orientation: IC50 means the midpoint of a concentration-inhibition curve. Higher therefore signals a need for much substance.

The target of test [1] is T1, human E3 ubiquitin-protein ligase RNF31 (HOIP) (Homo sapiens, UniProt Q96EP0).
T1 sequence (Q96EP0 695-1072 limits assumed): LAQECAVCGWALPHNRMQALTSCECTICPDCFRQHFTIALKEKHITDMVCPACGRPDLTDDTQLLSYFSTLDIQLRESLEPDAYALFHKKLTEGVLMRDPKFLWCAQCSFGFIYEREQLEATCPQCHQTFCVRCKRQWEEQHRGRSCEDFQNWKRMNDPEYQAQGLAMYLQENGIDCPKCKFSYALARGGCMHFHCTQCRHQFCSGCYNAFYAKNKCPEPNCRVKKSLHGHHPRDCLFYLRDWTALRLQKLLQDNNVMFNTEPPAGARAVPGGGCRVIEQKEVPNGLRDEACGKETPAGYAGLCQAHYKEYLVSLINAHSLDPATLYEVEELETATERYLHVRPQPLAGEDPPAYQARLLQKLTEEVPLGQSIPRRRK
Put plainly: Cell-free HTRF-based HOIP inhibition assay. In kind it is biochemical. The gist of the method: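 HTRF read (ex 337 nm; em 665 and 620 nm) after a 2.5 h, 25° C. ubiquitination step started by adding E2 plus substrates. Before that, E. coli-expressed human HOIP fragment and E1 were incubated 1 h at 25° C. with compound at 100-0.005 μM, 1% DMSO final.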
A general note: TR-FRET usually uses a lanthanide donor and a delayed reading to cut background.

Test [2] deals with bladder carcinoma RT4 cell line. Put plainly: TNF-α-induced cytotoxicity assay (CellTiter-Glo viability). The format is cell-based. To be noted: Homo sapiens, RT-4, 72 h. The gist of the method: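 RT4 bladder carcinoma cells, 1000 per well, stimulated with 1.25 ng/mL TNFα together with compound for 72 h at 37° C., 5% CO2. Viability read by CellTiter-Glo luminescence, proportional to cellular ATP, as a measure of HOIP-dependent cytotoxicity.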
A general note: In ATP-based viability assays light output follows the ATP content of the culture.

The next test has as its system NF-κB signaling pathway. In words: Cell-based dual luciferase NF-κB reporter assay (HEK293 cells, TNF stimulated). To be noted: Homo sapiens, HEK293. The procedure:
Dual-luciferase reporter assay was designed to find inhibitors of HOIP affecting NF-κB signaling pathway. The assay was performed in HEK293 cells which were transfected with plasmids coding for Firefly and NanoLuc luciferases. The NanoLuc luciferase plasmid contains NF-κB response element which determines its expression.
The assay was run following standard dual-luciferase protocols. The assay consists of a few steps: • compounds were dispensed at a concentration range: 100-0.005 μM with a final DMSO concentration of 1% of final volume (25 μL); • cells were stimulated after 30 min with 2.5 ng/mL TNF; and • after 6 h Firefly and NanoLuc luciferase activities are determined according to the procedure described by the manufacturer of Nano-Glo Dual-Luciferase Reporter Assay System.
(A reporter such as luciferase makes a cellular process visible.)

Where a name gives a salt, the structure may show the parent alone.

`O=C(NC/C=C/S(=O)(=O)c1ccccc1)c1cc2c([nH]c1=O)CCC(F)(F)C2` [Example 49, N-[(2E)-3-(benzenesulfonyl)prop-2-en-1-yl]-6,6-difluoro-2-oxo-1,2,5,6,7,8-hexahydroquinoline-3-carboxamide]: the IC50 in test [1] was at most 1 µM; in test [2], at most 10 µM; in the test with NF-κB signaling pathway, at most 10 µM.

Regarding `Cc1ccc(S(=O)(=O)/C=C/CNC(=O)c2cc3c([nH]c2=O)CCCC3)cc1C` [Example 51, N-[(2E)-3-(3,4-dimethylbenzenesulfonyl)prop-2-en-1-yl]-2-oxo-1,2,5,6,7,8-hexahydroquinoline-3-carboxamide], the IC50 (in test [1]; in test [2]; in the test on NF-κB signaling pathway) was at most 1 µM each time.

With `COc1ccc(S(=N)(=O)/C=C/CNC(=O)c2cc3c([nH]c2=O)CCCC3)cc1OC` (stereo not drawn) [Example 52, N-[(2E)-3-[(3,4-dimethoxyphenyl)(imino)oxo-λ^6-sulfanyl]prop-2-en-1-yl]-2-oxo-1,2,5,6,7,8-hexahydroquinoline-3-carboxamide], the IC50 in test [1] is at most 1 µM; in test [2], at most 1 µM; in the test on NF-κB signaling pathway it was at most 10 µM.

On to `[2H]C([2H])(/C=C/S(=O)(=O)c1ccccc1)NC(=O)c1cc2c([nH]c1=O)CCCC2` [Example 53, N-[(2E)-3-(benzenesulfonyl)(1,1-^2H2)prop-2-en-1-yl]-2-oxo-1,2,5,6,7,8-hexahydroquinoline-3-carboxamide], for which the IC50 (in test [1]; in test [2]; in the test with NF-κB signaling pathway) was at most 1 µM throughout.

Regarding `CN(C)c1ccc(S(=O)(=O)/C=C/CNC(=O)c2cc3c([nH]c2=O)CCCC3)cc1` [Example 54, N-[(2E)-3-[4-(dimethylamino)benzenesulfonyl]prop-2-en-1-yl]-2-oxo-1,2,5,6,7,8-hexahydroquinoline-3-carboxamide], the IC50 (in test [1]; in test [2]; in the test on NF-κB signaling pathway) was at most 1 µM each time.

On to `O=C(NC/C=C/S(=O)(=O)c1ccc(C2CC2)cc1)c1cc2c([nH]c1=O)CCCC2` [Example 55, N-[(2E)-3-(4-cyclopropylbenzenesulfonyl)prop-2-en-1-yl]-2-oxo-1,2,5,6,7,8-hexahydroquinoline-3-carboxamide], for which the IC50 in test [1] is at most 0.1 µM; in test [2] it was at most 1 µM; with NF-κB signaling pathway, at most 1 µM.

On to `N#Cc1ccc(S(=O)(=O)/C=C/CNC(=O)c2cc3c([nH]c2=O)CCCC3)cc1` [Example 56, N-[(2E)-3-(4-cyanobenzenesulfonyl)prop-2-en-1-yl]-2-oxo-1,2,5,6,7,8-hexahydroquinoline-3-carboxamide], for which the IC50 in test [1] was at most 0.1 µM; in test [2], at most 1 µM; in the test with NF-κB signaling pathway it was at most 0.1 µM.

Regarding `Cc1ccc(S(=N)(=O)/C=C/CNC(=O)c2cc3c([nH]c2=O)CCCC3)cc1C` (stereo not drawn) [Example 58, N-[(2E)-3-[(3,4-dimethylphenyl)(imino)oxo-λ^6-sulfanyl]prop-2-en-1-yl]-2-oxo-1,2,5,6,7,8-hexahydroquinoline-3-carboxamide], the results for the IC50 (in test [1]; in test [2]; with NF-κB signaling pathway) were at most 0.1 µM, at most 1 µM and at most 1 µM, respectively.

As to `N=S(=O)(/C=C/CNC(=O)c1cc2c([nH]c1=O)CCC(F)(F)C2)c1ccc(F)cc1` (stereo not drawn) [Example 59, 6,6-difluoro-N-[(2E)-3-[(4-fluorophenyl)(imino)oxo-λ^6-sulfanyl]prop-2-en-1-yl]-2-oxo-1,2,5,6,7,8-hexahydroquinoline-3-carboxamide], the values for the IC50 (in test [1]; in test [2]; in the test on NF-κB signaling pathway) were at most 1 µM, at most 1 µM and at most 10 µM, respectively.

Turning to `N=S(=O)(/C=C/CNC(=O)c1cc2c([nH]c1=O)CCCC2)c1ccccc1` (stereo not drawn) [Example 60, N-[(2E)-3-[imino(oxo)phenyl-λ^6-sulfanyl]prop-2-en-1-yl]-2-oxo-1,2,5,6,7,8-hexahydroquinoline-3-carboxamide], the IC50 in test [1] is at most 1 µM; in test [2] it was at most 10 µM; in the test with NF-κB signaling pathway, at most 1 µM.

In the case of `COc1c(C)cc(S(=N)(=O)/C=C/CNC(=O)c2cc3c([nH]c2=O)CCCC3)cc1C` (stereo not drawn) [Example 63, N-[(2E)-3-[Imino(4-methoxy-3,5-dimethylphenyl)oxo-λ^6-sulfanyl]prop-2-en-1-yl]-2-oxo-1,2,5,6,7,8-hexahydroquinoline-3-carboxamide], the half-maximal inhibitory concentration (IC50) (in test [1]; in test [2]; in the test with NF-κB signaling pathway) was at most 1 µM each time.

With `COc1cccc(S(=N)(=O)/C=C/CNC(=O)c2cc3c([nH]c2=O)CCCC3)c1` (stereo not drawn) [Example 64, N-[(2E)-3-[imino(3-methoxyphenyl)oxo-λ^6-sulfanyl]prop-2-en-1-yl]-2-oxo-1,2,5,6,7,8-hexahydroquinoline-3-carboxamide], the IC50 (in test [1]; in test [2]; in the test with NF-κB signaling pathway) was at most 1 µM in each case.

In the case of `N=S(=O)(/C=C/CNC(=O)c1cc2c([nH]c1=O)CCCC2)c1ccc(OC(F)(F)F)cc1` (stereo not drawn) [Example 65, N-[(2E)-3-[imino(oxo)[4-(trifluoromethoxy)phenyl]-%^6-sulfanyl]prop-2-en-1-yl]-2-oxo-1,2,5,6,7,8-hexahydroquinoline-3-carboxamide], the IC50 (in test [1]; in test [2]; with NF-κB signaling pathway) was at most 1 µM in each case.

For the compound `O=C(NC/C=C/S(=O)(=O)c1ccccc1)c1cc2c([nH]c1=O)CCNC2` [Example 66, N-[(2E)-3-(benzenesulfonyl)prop-2-en-1-yl]-2-oxo-1,2,5,6,7,8-hexahydro-1,6-naphthyridine-3-carboxamide hydrochloride], the IC50 (in test [1]; in test [2]; with NF-κB signaling pathway) was at most 10 µM throughout.

Take `O=C(NC/C=C/S(=O)(=O)c1ccccc1)c1cc2c([nH]c1=O)CCN(C(=O)OC1COC1)C2` [Example 67, oxetan-3-yl 3-{[(2E)-3-(benzenesulfonyl)prop-2-en-1-yl]carbamoyl}-2-oxo-1,2,5,6,7,8-hexahydro-1,6-naphthyridine-6-carboxylate]: the IC50 in test [1] was at most 1 µM; in test [2], at most 100 µM; in the test on NF-κB signaling pathway, at most 10 µM.

Consider `N=S(=O)(/C=C/CNC(=O)c1cc2c([nH]c1=O)CCN(C(=O)OCC1CC1)C2)c1ccc(F)cc1` (stereo not drawn) [Example 68, cyclopropylmethyl 3-{[(2E)-3-[(4-fluorophenyl)(imino)oxo-A*-sulfanyl]prop-2-en-1-yl]carbamoyl}-2-oxo-1,2,5,6,7,8-hexahydro-1,6-naphthyridine-6-carboxylate], for which the IC50 in test [1] was at most 0.1 µM; in test [2] it was at most 10 µM; in the test on NF-κB signaling pathway, at most 10 µM.

Take `O=C(NC/C=C/S(=O)(=O)c1ccccc1)c1cc2c([nH]c1=O)CCN(C(=O)OCC1CC1)C2` [Example 69, cyclopropylmethyl 3-{[(2E)-3-(benzenesulfonyl)prop-2-en-1-yl]carbamoyl}-2-oxo-1,2,5,6,7,8-hexahydro-1,6-naphthyridine-6-carboxylate]: the IC50 in test [1] is at most 0.1 µM; in test [2], at most 1 µM; in the test on NF-κB signaling pathway, at most 1 µM.

For `O=C(NC/C=C/S(=O)(=O)c1ccccc1)c1cc2c([nH]c1=O)CCN(C(=O)OC1CCC1)C2` [Example 70, cyclobutyl 3-{[(2E)-3-(benzenesulfonyl)prop-2-en-1-yl]carbamoyl}-2-oxo-1,2,5,6,7,8-hexahydro-1,6-naphthyridine-6-carboxylate], the IC50 was at most 0.1 µM in test [1], at most 1 µM in test [2] and at most 1 µM in the test on NF-κB signaling pathway.

The values above are taken from patent US20260250250A1, “3-(SULPHONYL OR SULFONIMIDOYL)PROP-2-EN-1-YL]-2-OXO-1,2-DIHYDROPYRIDINE-3-CARBOXAMIDE DERIVATIVES” (Flinder Therapeutics B.V., priority 2022, published 2026).
